Laboratory results from ChEMBL document CHEMBL4251560, “The Novel 4-Phenyl-2-Phenoxyacetamide Thiazoles modulates the tumor hypoxia leading to the crackdown of neoangiogenesis and evoking the cell death” (Eur J Med Chem, 2018).
Active and inactive are the calls of the source. The calls are words filed in the database; no cut-off is given here.

Key:
MCF7 [1] = test: Cytotoxicity against human MCF7 cells assessed as reduction in cell viability after 48 hrs by trypan blue exclusion assay; format: functional, cell-based; details: MCF7, 48 h
MCF7 [2] = test: Cytotoxicity against human MCF7 cells assessed as reduction in cell viability after 48 hrs by MTT assay; format: functional, cell-based; details: MCF7, 48 h
A549 [3] = test: Cytotoxicity against human A549 cells assessed as reduction in cell viability after 48 hrs by trypan blue exclusion assay; format: functional, cell-based; details: A549, 48 h
A549 [4] = test: Cytotoxicity against human A549 cells assessed as reduction in cell viability after 48 hrs by MTT assay; format: functional, cell-based; details: A549, 48 h
Ehrlich [5] = test: Cytotoxicity against mouse EAC cells assessed as reduction in cell viability after 48 hrs by trypan blue exclusion assay; format: functional, cell-based
Ehrlich [6] = test: Cytotoxicity against mouse EAC cells assessed as reduction in cell viability after 48 hrs by MTT assay; format: functional, cell-based
[7] = Cytotoxicity against mouse DLA cells assessed as reduction in cell viability after 48 hrs by trypan blue exclusion assay; format: functional, cell-based
[8] = Cytotoxicity against mouse DLA cells assessed as reduction in cell viability after 48 hrs by MTT assay; format: functional, cell-based
MDA-MB-468 [9] = test: Cytotoxicity against human MDA-MB-468 cells assessed as reduction in cell viability after 48 hrs by trypan blue exclusion assay; format: functional, cell-based; details: MDA-MB-468, 48 h
MDA-MB-468 [10] = test: Cytotoxicity against human MDA-MB-468 cells assessed as reduction in cell viability after 48 hrs by MTT assay; format: functional, cell-based; details: MDA-MB-468, 48 h
Ehrlich [11] = test: Antitumor activity against mouse EAC cells implanted in Swiss albino mouse assessed as decrease in tumor volume at 25 mg/kg, ip administered every alternate day for 3 days; format: functional; details: 72 h, read-out: TGI
Ehrlich [12] = test: Antitumor activity against mouse EAC cells implanted in Swiss albino mouse assessed as decrease in tumor volume at 50 mg/kg, ip administered every alternate day for 3 days; format: functional; details: 72 h, read-out: TGI
Ehrlich [13] = test: Antitumor activity against mouse EAC cells implanted in ip dosed Swiss albino mouse assessed as decrease in tumor volume administered every alternate day for 3 days; format: functional, organism-based
Ehrlich [14] = test: Antitumor activity against mouse EAC cells implanted in ip dosed Swiss albino mouse assessed as reduction in cell density administered every alternate day for 3 days; format: functional
Ehrlich [15] = test: Antitumor activity against mouse EAC cells implanted in ip dosed Swiss albino mouse assessed as reduction in ascite volume administered every alternate day for 3 days; format: functional
Ehrlich [16] = test: Antitumor activity against mouse EAC cells implanted in Swiss albino mouse assessed as mouse survival at 25 to 50 mg/kg, ip administered every alternate day for 3 days; format: functional
Mus musculus [17] = test: Toxicity in Swiss albino mouse implanted with mouse EAC cells assessed as induction of adverse effect on liver at 25 to 50 mg/kg, ip administered every alternate day for 3 days; format: organism-based; details: in vivo, 72 h
Mus musculus [18] = test: Toxicity in Swiss albino mouse implanted with mouse EAC cells assessed as induction of adverse effect on spleen at 25 to 50 mg/kg, ip administered every alternate day for 3 days; format: organism-based; details: in vivo, 72 h
Ehrlich [19] = test: Antitumor activity against mouse EAC solid tumor implanted in Swiss albino mouse assessed as reduction in tumor mass at 25 mg/kg, ip administered every alternate day for 3 days; format: functional
Ehrlich [20] = test: Antitumor activity against mouse EAC solid tumor implanted in ip dosed Swiss albino mouse assessed as reduction in tumor volume administered every alternate day for 3 days; format: functional, organism-based
Chorioallantoic membrane = test: In vivo antiangiogenic activity in chicken chorioallantoic membrane assessed as inhibition of recombinant VEGF165-induced vessel formation after 3 days; format: functional, Gallus gallus
Cornea = test: Antiangiogenic activity in cornea of alkali injured rat eye assessed as induction of restraining of vessel sprouting applied to centre of cornea for 40 secs post alkali injury; format: functional
Ehrlich [21] = test: In vivo antiangiogenic activity in mouse EAC implanted in Swiss albino mouse assessed as regression of tumor-induced angiogenesis in peritoneum at 5 mg/kg, ip administered every alternate day for 3 days; format: functional; details: 72 h
Ehrlich [22] = test: In vivo antiangiogenic activity in mouse EAC implanted in Swiss albino mouse assessed as regression of tumor-induced angiogenesis in peritoneum at 25 mg/kg, ip administered every alternate day for 3 days; format: functional; details: 72 h
Ehrlich [23] = test: In vivo antiangiogenic activity in mouse EAC implanted in Swiss albino mouse administered ip assessed as regression of tumor-induced angiogenesis in peritoneum administered every alternate day for 3 days; format: functional, organism-based
Mus musculus [24] = test: In vivo inhibition of HIF-1alpha expression in Swiss albino mouse EAC cells implanted with mouse EAC at 25 to 50 mg/kg, ip administered every alternate day for 3 days by immunoblot analysis; format: functional, organism-based
Ehrlich [25] = test: In vivo induction of apoptosis in mouse EAC cells implanted in Swiss albino mouse assessed as EAC cell membrane blebbing at 25 to 50 mg/kg, ip administered every alternate day for 3 days by Geimsa staining-based microscopic analysis; format: functional, organism-based
Ehrlich [26] = test: In vivo induction of apoptosis in mouse EAC cells implanted in Swiss albino mouse assessed as EAC cell shrinkage at 25 to 50 mg/kg, ip administered every alternate day for 3 days by Geimsa staining-based microscopic analysis; format: functional, organism-based
Ehrlich [27] = test: In vivo induction of apoptosis in mouse EAC cells implanted in Swiss albino mouse assessed as induction of EAC cell irregular shape at 25 to 50 mg/kg, ip administered every alternate day for 3 days by Geimsa staining-based microscopic analysis; format: functional, organism-based
Mus musculus [28] = test: In vivo induction of apoptosis in mouse EAC cells implanted in Swiss albino mouse assessed as DNA fragmentation at 25 to 50 mg/kg, ip administered every alternate day for 3 days by DNA fragmentation assay; format: functional, organism-based
Mus musculus [29] = test: Up-regulation of p53 protein expression in Swiss albino mouse EAC cells implanted with mouse EAC at 25 to 50 mg/kg, ip administered every alternate day for 3 days by immunoblot analysis; format: functional, organism-based
Mus musculus [30] = test: Up-regulation of MDM2 protein expression in Swiss albino mouse EAC cells implanted with mouse EAC at 25 to 50 mg/kg, ip administered every alternate day for 3 days by immunoblot analysis; format: functional, organism-based
Ehrlich [31] = test: Antitumor activity against mouse EAC solid tumor implanted in Swiss albino mouse assessed as reduction in tumor growth at 25 mg/kg, ip administered every alternate day for 3 days by animal morphology analysis; format: functional, organism-based
Mus musculus [32] = test: In vivo inhibition of VEGF secretion in Swiss albino mouse EAC cells implanted with mouse EAC at 25 to 50 mg/kg, ip administered every alternate day for 3 days by ELISA; format: functional, organism-based

## Cc1ccc(-c2csc(NC(=O)COc3ccc(F)cc3F)n2)cc1
MCF7 [1]
  IC50: 14 µM
MCF7 [2]
  IC50: 14.5 µM
A549 [3]
  IC50: 13.2 µM
A549 [4]
  IC50: 13.9 µM
Ehrlich [5]
  IC50: 14 µM
Ehrlich [6]
  IC50: 14.9 µM
[7]
  IC50: 13.9 µM
[8]
  IC50: 13.4 µM
MDA-MB-468 [9]
  IC50: 10.2 µM
MDA-MB-468 [10]
  IC50: 10.5 µM
Ehrlich [11]
  inhibition in vivo at 25 mg/kg: 74.3%
Ehrlich [12]
  inhibition in vivo at 50 mg/kg: 80.2%
Ehrlich [13]
  Activity: Dose-dependent effect
Ehrlich [14]
  fold change (FC): 6
Ehrlich [15]
  Activity: Dose-dependent effect
  fold change (FC): 3 - 4
Ehrlich [16]
  Survival: >=23 - 25 day
Mus musculus [17]
  Activity: Non-Toxic
Mus musculus [18]
  Activity: Non-Toxic
Ehrlich [19]
  Activity: <=10 g
Ehrlich [20]
  Activity: Dose-dependent effect
Chorioallantoic membrane
  inhibition (INH): 80%
Cornea
  Activity: 60%
Ehrlich [21]
  inhibition in vivo at 5 mg/kg: 10%
Ehrlich [22]
  inhibition in vivo at 25 mg/kg: 30%
Ehrlich [23]
  Activity: Dose-dependent effect
Mus musculus [24]
  inhibition: Active
Ehrlich [25]
  Activity: Active
Ehrlich [26]
  Activity: Active
Ehrlich [27]
  Activity: Active
Mus musculus [28]
  Activity: Active
Mus musculus [29]
  Activity: Active
Mus musculus [30]
  Activity: Active
Ehrlich [31]
  TGI: Active
Mus musculus [32]
  inhibition: Active
